Assay results published in PMC8329121 (Journal of Neuroimmune Pharmacology, 2021).
Changes are numbered by the printed parent chain.

What was measured:
[1] = target: T1, E2C-I159C hDAT (C90A/C306A/I159C) (Homo sapiens, UniProt Q01959, C306A/C90A/I159C); parameters: method as in Loland et al. [2004], [2008]; conditions: 0.5 mM MTSET for 10 min; ref Loland et al. [2004], [2008]; cited from earlier work
T1 construct: expressed in transfected cells; host or cells: HEK293 cells, transient, pcDNA3.1+
T1 sequence (Q01959 1-620 C90A/I159C/C306A): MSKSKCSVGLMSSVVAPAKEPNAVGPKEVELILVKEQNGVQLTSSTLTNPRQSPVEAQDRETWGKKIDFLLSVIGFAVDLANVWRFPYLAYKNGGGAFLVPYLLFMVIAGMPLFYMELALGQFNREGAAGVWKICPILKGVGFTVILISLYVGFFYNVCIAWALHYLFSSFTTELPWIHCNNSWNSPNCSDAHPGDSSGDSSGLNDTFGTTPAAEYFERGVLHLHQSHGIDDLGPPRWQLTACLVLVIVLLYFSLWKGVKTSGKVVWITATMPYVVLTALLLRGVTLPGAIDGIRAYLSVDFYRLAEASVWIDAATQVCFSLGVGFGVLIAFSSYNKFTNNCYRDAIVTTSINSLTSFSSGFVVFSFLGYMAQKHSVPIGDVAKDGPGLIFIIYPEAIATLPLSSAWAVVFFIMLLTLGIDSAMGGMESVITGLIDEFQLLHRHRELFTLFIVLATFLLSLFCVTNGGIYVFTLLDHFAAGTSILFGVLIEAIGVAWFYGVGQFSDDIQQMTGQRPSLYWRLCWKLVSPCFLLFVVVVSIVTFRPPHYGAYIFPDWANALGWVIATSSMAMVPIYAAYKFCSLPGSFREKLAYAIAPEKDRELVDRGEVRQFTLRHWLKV

[2] = target: T2, E2C/H547A hDAT (C90A/C306A/H547A) (Homo sapiens, UniProt Q01959, C306A/C90A/H547A); assay: MTSET assay, [3H]DA uptake in HEK293 cells; format: cell-based; conditions: 1 mM MTSET, HEK293, Fig. 8b
T2 construct: expressed in transfected cells; host or cells: HEK293 cells, transient, pcDNA3.1+
T2 sequence (Q01959 1-620 C90A/C306A/H547A): T1 sequence (Q01959 1-620 C90A/I159C/C306A) with C159I, H547A
Text: All mutants on hDAT were generated based on the predictions made using our computational model, as described previously using site-directed mutagenesis based on the wild-type hDAT (WT hDAT) sequence (NCBI, cDNA clone MGC: 164,608 IMAGE: 40,146,999) (Quizon et al. [2016]). The combination of hDAT mutations on Asp206 and His547 (Aspartic acid 206 to leucine and histidine 547 to alanine, D206L/H547A) were predicted to eliminate two hydrogen bonds between Tat and hDAT. In addition, the combination of mutations on Tyr88, Asp206, and His547 (tyrosine88 to phenylalanine and aspartic acid 206 to leucine and histidine 547 to alanine, Y88F/D206L/H547A) were predicted to eliminate three hydrogen bonds from the Tat-hDAT complex. Two extracellular cysteine90 and cysteine306 residues on WT hDAT were mutated to alanine as E2C hDAT (C90A/C306A hDAT), rendering the E2C hDAT MTSET-insensitive background (Pedersen et al. [2014]). A triple mutation of the two cysteine90 and 306 residues to alanine and […] to cysteine on WT hDAT was generated as E2C-I159C hDAT (C90A/C306A/I159C) for MTSET-sensitive construct. A combination of C90A/C306A/H547A was generated as E2C/H547A hDAT for MTSET-insensitive control for H547A. To determine whether H547A-enhanced DA transport is mediated by changing transporter conformation, two combinations of C90A/C306A/I159C/H547A and C90A/C306A/I159A/H547A were generated as E2C-I159C/H547A and E2C-I159A/H547A for positive and negative controls for MTSET sensitive background, respectively. Synthetic cDNA encoding hDAT subcloned into pcDNA3.1+ (provided by Dr. Haley E Melikian, University of Massachusetts) was used as a template to generate mutants using site-directed mutagenesis performed by GENEWIZ (South Plainfield, NJ). DNA sequencing was also performed by GENEWIZ to confirm the sequences of the mutant constructs. Plasmid DNA were propagated and purified using the Qiagen Hi-speed maxi prep plasmid DNA isolation kit (Qiagen, Valencia, CA, USA).
This assay was performed based on the previous report with minor modifications (Loland et al. [2004], [2008]). First, we generated five WT hDAT based plasmid construct for MTSET-insensitive or sensitive background as we described above. HEK293 cells were grown in poly-d-lysine coated plates at a density of 1 × 10^5 cells/cm^2 were transfected with different E2C- associated hDAT background constructs: E2C hDAT, E2C-I159C hDAT, E2C/H547A hDAT, E2C-I159C/H547A or E2C-I159A/H547A. Twenty-four hours after the transfection, cells were washed twice with 1× KRH buffer, and preincubated with or without the presence of 10 µM nomifensine (for non-specific uptake) and MTSET for 10 min at room temperature. MTSET at 1 mM final concentration was chosen based on a pilot study on optimizing MTSET concentrations (0.1, 0.5 or 1.0 mM). […] Because MTSET is easily hydrolyzed in solution, the amount needed for a 10 × stock was weighed out and dissolved in 1 × KRH buffer just right before adding to the assigned wells, for a 10-fold dilution (final concentration of 1 mM in final volume of 250 µl). […] Cells were immediately washed twice with ice-cold 1 × KRH buffer to terminate the reaction and were lysed rapidly with the addition of 1 % SDS. Cell lysates were collected after incubation for 1 h at room temperature and radioactivity was determined the next day.

## C[N+](C)(C)CCSS(C)(=O)=O [MTSET, [2-(trimethylammonium)ethyl]-methanethiosulfonate]
[1]
  inhibition on E2C-I159C: 40%
[2]
  effect of MTSET on DA uptake: no effect
